# Measured values as given in ChEMBL document CHEMBL2062516, “Design, synthesis and antibacterial activities of a series of new 2-oxaisocephems” (2012).
# What was measured:
# Type in all cases: functional
# [1] = tested on: Staphylococcus aureus; assay: Antibacterial activity against Staphylococcus aureus ATCC 25923
# [2] = tested on: Staphylococcus epidermidis; assay: Antibacterial activity against Staphylococcus epidermidis
# [3] = tested on: Escherichia coli; assay: Antibacterial activity against Escherichia coli ATCC 25922
# [4] = tested on: Pseudomonas aeruginosa; assay: Antibacterial activity against Pseudomonas aeruginosa ATCC 27853
# [5] = tested on: Klebsiella pneumoniae; assay: Antibacterial activity against Klebsiella pneumoniae
# [6] = tested on: Staphylococcus aureus; assay: Ratio MIC for ceftazidime to compound MIC for Staphylococcus aureus ATCC 25923
# [7] = tested on: Pseudomonas aeruginosa; assay: Ratio MIC for ceftazidime to compound MIC for Pseudomonas aeruginosa ATCC 27853
smiles,measurement,setting,value
CO/N=C(\C(=O)N[C@@H]1C(=O)N2C(C(=O)O)=C(CSc3nncs3)OC[C@H]12)c1nsc(N)n1,MIC,[1],64 µg/mL
same,MIC,[2],16 µg/mL
same,MIC,[3],64 µg/mL
same,MIC,[4],32 µg/mL
same,MIC,[5],8 µg/mL
CCO/N=C(\C(=O)N[C@@H]1C(=O)N2C(C(=O)O)=C(CSc3nncs3)OC[C@H]12)c1nsc(N)n1,MIC,[1],64 µg/mL
same,MIC,[2],128 µg/mL
same,MIC,[3],128 µg/mL
same,MIC,[4],128 µg/mL
same,MIC,[5],128 µg/mL
CC(C)O/N=C(\C(=O)N[C@@H]1C(=O)N2C(C(=O)O)=C(CSc3nncs3)OC[C@H]12)c1nsc(N)n1,MIC,[1],32 µg/mL
same,MIC,[2],1 µg/mL
same,MIC,[3],128 µg/mL
same,MIC,[4],4 µg/mL
same,MIC,[5],1 µg/mL
CCCCCO/N=C(\C(=O)N[C@@H]1C(=O)N2C(C(=O)O)=C(CSc3nncs3)OC[C@H]12)c1nsc(N)n1,MIC,[1],64 µg/mL
same,MIC,[2],64 µg/mL
same,MIC,[3],128 µg/mL
same,MIC,[4],16 µg/mL
same,MIC,[5],32 µg/mL
CC(C)CCO/N=C(\C(=O)N[C@@H]1C(=O)N2C(C(=O)O)=C(CSc3nncs3)OC[C@H]12)c1nsc(N)n1,MIC,[1],128 µg/mL
same,MIC,[2],128 µg/mL
same,MIC,[3],128 µg/mL
same,MIC,[4],128 µg/mL
same,MIC,[5],128 µg/mL
Nc1nc(/C(=N/OC2CCCC2)C(=O)N[C@@H]2C(=O)N3C(C(=O)O)=C(CSc4nncs4)OC[C@H]23)ns1,MIC,[1],128 µg/mL
same,MIC,[2],8 µg/mL
same,MIC,[3],128 µg/mL
same,MIC,[4],16 µg/mL
same,MIC,[5],4 µg/mL
Nc1nc(/C(=N/OC2CCCCC2)C(=O)N[C@@H]2C(=O)N3C(C(=O)O)=C(CSc4nncs4)OC[C@H]23)ns1,MIC,[1],128 µg/mL
same,MIC,[2],16 µg/mL
same,MIC,[3],128 µg/mL
same,MIC,[4],16 µg/mL
same,MIC,[5],16 µg/mL
CO/N=C(\C(=O)N[C@@H]1C(=O)N2C(C(=O)O)=C(CSc3nnnn3CCO)OC[C@H]12)c1nsc(N)n1,MIC,[1],0.5 µg/mL
same,MIC,[2],16 µg/mL
same,MIC,[3],2 µg/mL
same,MIC,[4],16 µg/mL
same,MIC,[5],32 µg/mL
same,Ratio,[6],4
CCO/N=C(\C(=O)N[C@@H]1C(=O)N2C(C(=O)O)=C(CSc3nnnn3CCO)OC[C@H]12)c1nsc(N)n1,MIC,[1],0.5 µg/mL
same,MIC,[2],0.125 µg/mL
same,MIC,[3],2 µg/mL
same,MIC,[4],64 µg/mL
same,MIC,[5],64 µg/mL
CC(C)O/N=C(\C(=O)N[C@@H]1C(=O)N2C(C(=O)O)=C(CSc3nnnn3CCO)OC[C@H]12)c1nsc(N)n1,MIC,[1],0.5 µg/mL
same,MIC,[2],0.125 µg/mL
same,MIC,[3],0.5 µg/mL
same,MIC,[4],8 µg/mL
same,MIC,[5],32 µg/mL
CCCCCO/N=C(\C(=O)N[C@@H]1C(=O)N2C(C(=O)O)=C(CSc3nnnn3CCO)OC[C@H]12)c1nsc(N)n1,MIC,[1],16 µg/mL
same,MIC,[2],0.125 µg/mL
same,MIC,[3],8 µg/mL
same,MIC,[4],4 µg/mL
same,MIC,[5],32 µg/mL
same,Ratio,[7],2
CC(C)CCO/N=C(\C(=O)N[C@@H]1C(=O)N2C(C(=O)O)=C(CSc3nnnn3CCO)OC[C@H]12)c1nsc(N)n1,MIC,[1],4 µg/mL
same,MIC,[2],0.125 µg/mL
same,MIC,[3],16 µg/mL
same,MIC,[4],8 µg/mL
same,MIC,[5],64 µg/mL
same,Ratio,[7],2
Nc1nc(/C(=N/OC2CCCC2)C(=O)N[C@@H]2C(=O)N3C(C(=O)O)=C(CSc4nnnn4CCO)OC[C@H]23)ns1,MIC,[1],1 µg/mL
same,MIC,[2],0.125 µg/mL
same,MIC,[3],4 µg/mL
same,MIC,[4],2 µg/mL
same,MIC,[5],8 µg/mL
same,Ratio,[7],2
Nc1nc(/C(=N/OC2CCCCC2)C(=O)N[C@@H]2C(=O)N3C(C(=O)O)=C(CSc4nnnn4CCO)OC[C@H]23)ns1,MIC,[1],2 µg/mL
same,MIC,[2],64 µg/mL
same,MIC,[3],32 µg/mL
same,MIC,[4],64 µg/mL
same,MIC,[5],128 µg/mL
CC(C)(O/N=C(\C(=O)N[C@@H]1C(=O)N2C(C(=O)[O-])=C(C[n+]3ccccc3)CS[C@H]12)c1csc(N)n1)C(=O)O [CEFTAZIDIME],MIC,[1],2 µg/mL
same,MIC,[2],16 µg/mL
same,MIC,[3],4 µg/mL
same,MIC,[4],16 µg/mL
same,MIC,[5],32 µg/mL
